According to patent publication US12060368B2, “Selenophenochromene hydroxamic acids, preparation and use as angiogenesis inhibitors” (Latvian Institute of Organic Synthesis, priority 2018, dated 2024):
Where a name gives a salt, the structure may show the parent alone.

Legend:
[1] = target: T1, MMP 13 (Homo sapiens, UniProt P45452); test: MMP Inhibitor Fluorimetric Profiling kit, MMP 13; assay type: biochemical; settings: for MMP 13 inhibition IC50 / IC50: ne = no effect; for inhibition at 20 µM: test compound 20 μM; for IC50: read-out: MMP 13 inhibition IC50
T1 construct: recombinant human MMP-1-10, 12, 13 and 14 catalytic domains; purchased Biornol, USA
Description: (§1) Inhibition of matrix metalloproteinase enzymes by synthesized selenopheno[3,2-h]chromenes I-1-I-4 was detected on MMP Inhibitor Fluorimetric Profiling kit using NNGH (N-isobutyl-N-4-methoxyphenylsulfonyl)glycyl-hydroxamic acid) as a standard.
(§2) MMP assay: Inhibitors of matrix metalloproteinase enzymes were detected with the use of MMP Inhibitor Fluorimetric Profiling kit (Biornol, USA) accordingly to manufacturer's instructions. MMP activity assays were performed in 96-well plates using the recombinant human MMP-1-10, 12, 13 and 14 catalytic domains and OmniMMP™ fluorogenic substrate SEQ ID No 1: Mca-Pro-Leu-Gly-Leu-Dpa-Ala-Arg-NH2. The test compounds (20 μM) were dissolved in DMSO. The compound NNGH (N-isobutyl-N-(4-methoxyphenylsulfonyl)-glycylhydroxamic acid) was used as a prototypic control inhibitor. The rate of substrate hydrolysis was determined by fluorescence intensity measuring for 10 minutes at 37° C. temperature using a fluorescence plate reader (Tecan infinite M1000, Austria) with excitation at 328 nm and emission at 420 nm. Data analysis was performed using program Graph Pad Prism® 3.0.

[2] = target: T2, MMP 10 (stromelysin 2) (Homo sapiens, UniProt P09238); test: MMP Inhibitor Fluorimetric Profiling kit, MMP 10; assay type: biochemical; settings: for IC50: read-out: MMP 10 inhibition IC50; for inhibition at 20 µM: test compound 20 μM
T2 construct: recombinant human MMP-1-10, 12, 13 and 14 catalytic domains; purchased Biornol, USA
T2 sequence (P09238 99-263 limits assumed): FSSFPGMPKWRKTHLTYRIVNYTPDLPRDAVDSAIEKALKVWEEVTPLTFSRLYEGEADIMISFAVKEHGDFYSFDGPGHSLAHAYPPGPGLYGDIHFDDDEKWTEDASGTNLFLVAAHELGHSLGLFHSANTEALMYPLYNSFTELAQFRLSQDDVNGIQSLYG
Description: as §1, §2

[3] = target: T3, MMP 2 (Homo sapiens, UniProt P08253); test: MMP Inhibitor Fluorimetric Profiling kit, MMP 2; assay type: biochemical; settings: for IC50: read-out: MMP 2 inhibition IC50; for inhibition at 20 µM: test compound 20 μM
T3 construct: recombinant human MMP-1-10, 12, 13 and 14 catalytic domains; purchased Biornol, USA
T3 sequence (P08253 110-446 limits assumed): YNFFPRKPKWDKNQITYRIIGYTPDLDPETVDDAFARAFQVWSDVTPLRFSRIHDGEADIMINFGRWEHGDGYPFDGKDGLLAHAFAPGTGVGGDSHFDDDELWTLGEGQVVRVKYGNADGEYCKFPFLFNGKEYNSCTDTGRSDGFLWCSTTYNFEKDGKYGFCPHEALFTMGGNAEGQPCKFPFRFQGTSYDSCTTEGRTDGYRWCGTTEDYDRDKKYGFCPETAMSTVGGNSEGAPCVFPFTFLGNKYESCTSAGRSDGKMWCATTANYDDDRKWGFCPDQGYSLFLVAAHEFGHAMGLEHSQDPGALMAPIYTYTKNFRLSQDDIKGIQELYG
Description: as §1, §2

[4] = target: T4, MMP 1 (Homo sapiens, UniProt P03956); test: MMP Inhibitor Fluorimetric Profiling kit, MMP 1; assay type: biochemical; settings: for IC50: read-out: MMP 1 inhibition IC50; for inhibition at 20 µM: test compound 20 μM
T4 construct: recombinant human MMP-1-10, 12, 13 and 14 catalytic domains; purchased Biornol, USA
T4 sequence (P03956 98-276 limits assumed): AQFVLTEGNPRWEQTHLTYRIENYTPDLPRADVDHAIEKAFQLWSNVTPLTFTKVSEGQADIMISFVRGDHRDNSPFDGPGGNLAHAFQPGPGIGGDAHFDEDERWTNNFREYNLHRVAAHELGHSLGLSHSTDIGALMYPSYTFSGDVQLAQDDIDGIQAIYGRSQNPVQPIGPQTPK
Description: as §1, §2

[5] = target: T5, MMP 3 (Homo sapiens, UniProt P08254); test: MMP Inhibitor Fluorimetric Profiling kit, MMP 3; assay type: biochemical; settings: for IC50: ne = no effect, read-out: MMP 3 inhibition IC50; for inhibition at 20 µM: test compound 20 μM
T5 construct: recombinant human MMP-1-10, 12, 13 and 14 catalytic domains; purchased Biornol, USA
T5 sequence (P08254 100-272 limits assumed): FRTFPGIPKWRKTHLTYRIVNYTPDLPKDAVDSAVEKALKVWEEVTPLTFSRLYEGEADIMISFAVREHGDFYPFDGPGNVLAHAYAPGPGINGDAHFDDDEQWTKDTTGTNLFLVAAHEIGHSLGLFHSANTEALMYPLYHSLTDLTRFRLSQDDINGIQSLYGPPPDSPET
Description: as §1, §2

[6] = target: T6, MMP 14 (Homo sapiens, UniProt P50281); test: MMP Inhibitor Fluorimetric Profiling kit, MMP 14; assay type: biochemical; settings: for IC50: read-out: MMP 14 inhibition IC50; for inhibition at 20 µM: test compound 20 μM
T6 construct: recombinant human MMP-1-10, 12, 13 and 14 catalytic domains; purchased Biornol, USA
Description: as §1, §2

[7] = target: T7, MMP 7 (Homo sapiens, UniProt P09237); test: MMP Inhibitor Fluorimetric Profiling kit, MMP 7; assay type: biochemical; settings: for inhibition at 20 µM: test compound 20 μM
T7 construct: recombinant human MMP-1-10, 12, 13 and 14 catalytic domains; purchased Biornol, USA
T7 sequence (P09237 95-267): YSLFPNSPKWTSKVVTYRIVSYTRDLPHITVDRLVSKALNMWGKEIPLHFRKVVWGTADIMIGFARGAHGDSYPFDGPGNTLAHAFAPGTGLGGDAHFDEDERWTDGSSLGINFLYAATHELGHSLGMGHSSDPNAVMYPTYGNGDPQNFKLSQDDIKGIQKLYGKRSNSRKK
Description: as §1, §2

[8] = target: T8, MMP 9 (Homo sapiens, UniProt P14780); test: MMP Inhibitor Fluorimetric Profiling kit, MMP 9; assay type: biochemical; settings: for IC50: read-out: MMP 9 inhibition IC50; for inhibition at 20 µM: test compound 20 μM
T8 construct: recombinant human MMP-1-10, 12, 13 and 14 catalytic domains; purchased Biornol, USA
T8 sequence (P14780 107-444 limits assumed): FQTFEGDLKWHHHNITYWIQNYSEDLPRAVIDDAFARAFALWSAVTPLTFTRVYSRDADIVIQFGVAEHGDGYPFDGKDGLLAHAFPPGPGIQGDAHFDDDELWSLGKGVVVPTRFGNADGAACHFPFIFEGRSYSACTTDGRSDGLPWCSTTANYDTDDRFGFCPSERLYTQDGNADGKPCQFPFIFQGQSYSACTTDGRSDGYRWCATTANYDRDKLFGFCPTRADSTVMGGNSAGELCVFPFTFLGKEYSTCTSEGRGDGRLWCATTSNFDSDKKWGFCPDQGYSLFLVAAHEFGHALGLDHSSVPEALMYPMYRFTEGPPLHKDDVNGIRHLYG
Description: as §1, §2

[9] = target: T9, MMP 12 (Homo sapiens, UniProt P39900); test: MMP Inhibitor Fluorimetric Profiling kit, MMP 12; assay type: biochemical; settings: for MMP 12 inhibition IC50: ne = no effect; for inhibition at 20 µM: test compound 20 μM
T9 construct: recombinant human MMP-1-10, 12, 13 and 14 catalytic domains; purchased Biornol, USA
T9 sequence (P39900 106-263 limits assumed): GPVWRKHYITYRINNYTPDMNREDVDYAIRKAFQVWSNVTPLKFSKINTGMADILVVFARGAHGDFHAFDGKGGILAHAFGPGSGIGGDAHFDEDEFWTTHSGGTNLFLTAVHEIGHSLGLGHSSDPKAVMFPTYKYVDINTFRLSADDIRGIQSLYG
Description: as §1, §2

[10] = target: T10, MMP 8 (Homo sapiens, UniProt P22894); test: MMP Inhibitor Fluorimetric Profiling kit, MMP 8; assay type: biochemical; settings: for IC50: read-out: MMP 8 inhibition IC50; for inhibition at 20 µM: test compound 20 μM
T10 construct: recombinant human MMP-1-10, 12, 13 and 14 catalytic domains; purchased Biornol, USA
T10 sequence (P22894 100-262 limits assumed): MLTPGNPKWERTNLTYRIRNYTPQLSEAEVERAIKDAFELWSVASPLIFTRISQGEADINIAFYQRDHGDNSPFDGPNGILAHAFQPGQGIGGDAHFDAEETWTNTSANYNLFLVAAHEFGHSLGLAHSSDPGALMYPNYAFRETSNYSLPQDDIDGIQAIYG
Description: as §1, §2

Compound | melting point [°C] | inhibition at 20 µM [1] [%] | IC50 ([2]; ne = no effect) [µM] | inhibition at 20 µM [2] [%] | IC50 ([3]; ne = no effect) [µM] | inhibition at 20 µM [3] [%] | IC50 ([4]; ne = no effect) [µM] | inhibition at 20 µM [4] [%] | IC50 [5] [µM] | inhibition at 20 µM [5] [%] | IC50 ([6]; ne = no effect) [µM] | inhibition at 20 µM [6] [%] | inhibition at 20 µM [7] [%] | IC50 ([8]; ne = no effect) [µM] | inhibition at 20 µM [8] [%] | MMP 12 inhibition IC50 [9] | inhibition at 20 µM [9] [%] | IC50 ([10]; ne = no effect) [µM] | inhibition at 20 µM [10] [%] | IC50 [1] [µM] | also measured
CN1CCN(Cc2[se]c3c(ccc4cc(C(=O)NO)c(=O)oc43)c2Br)CC1 (as salt: hydrochloride) [Compound I-1, 7-Bromo-N-hydroxy-8-((4-methylpiperazin-1-yl)methyl)-2-oxo-2H-selenopheno[3,2-h]chromene-3-carboxamide hydrochloride] | > 200 |  |  |  |  |  |  |  |  |  |  |  |  |  |  |  |  |  |  |  | 
O=C(NO)c1cc2ccc3c(Br)c(CN4CCNCC4)[se]c3c2oc1=O (as salt: hydrochloride) [Compound I-2, 7-Bromo-N-hydroxy-2-oxo-8-(piperazin-1-ylmethyl)-2H-selenopheno[3,2-h]chromene-3-carboxamide hydrochloride] | > 200 |  |  |  |  |  |  |  |  |  |  |  |  |  |  |  |  |  |  |  | 
O=C(NO)c1cc2ccc3c(Br)c(CCN4CCNCC4)[se]c3c2oc1=O (as salt: hydrochloride) [Compound I-3, 7-Bromo-N-hydroxy-2-oxo-8-(2-(piperazin-1-yl)ethyl)-2H-selenopheno[3,2-h]chromene-3-carboxamide hydrochloride] | > 200 |  |  |  |  |  |  |  |  |  |  |  |  |  |  |  |  |  |  |  | 
CN1CCN(Cc2[se]c3c(ccc4cc(C(=O)NO)c(=O)oc43)c2Br)CC1 [Compound I-1, 7-Bromo-N-hydroxy-8-((4-methylpiperazin-1-yl)methyl)-2-oxo-2H-selenopheno[3,2-h]chromene-3-carboxamide hydrochloride] |  | 0 | 1.92 | ≤ 97 | 20 | 51 ± 2 | > 20 | 29 ± 2 | > 20 | 34 ± 2 | 18 ± 2 | 58 ± 2 | 28 ± 2 | > 20 | 35 ± 5 | ne | 0 | 20 | 56 ± 2 |  | MMP 13 inhibition IC50 [1]: ne; IC50 ([7]; ne = no effect, read-out: MMP 7 inhibition IC50): > 20 µM
O=C(NO)c1cc2ccc3c(Br)c(CN4CCNCC4)[se]c3c2oc1=O [Compound I-2, 7-Bromo-N-hydroxy-2-oxo-8-(piperazin-1-ylmethyl)-2H-selenopheno[3,2-h]chromene-3-carboxamide hydrochloride] |  | 98 ± 1 | 1.37 ± 0.85 | 99 | 1.57 ± 0.18 | 98 ± 1 | 5.93 ± 0.54 | 94 ± 1 | > 20 | 31 ± 7 | 4.35 ± 1.02 | 98 ± 2 | 20 ± 1 | 1.48 ± 0.11 | 100 ± 1 | ne | 5 ± 1 | 1.64 ± 0.25 | 100 ± 1 | 6.27 ± 0.65 | MMP 13 inhibition IC50 [1]: 1.37+6.27 μM; MMP 10 inhibition IC50 ([2]; ne = no effect): 1.37+6.27 μM; MMP 2 inhibition IC50 ([3]; ne = no effect): 1.37+6.27 μM; MMP 1 inhibition IC50 ([4]; ne = no effect): 1.37+6.27 μM; MMP 14 inhibition IC50 ([6]; ne = no effect): 1.37+6.27 μM; MMP 7 inhibition IC50 ([7]; ne = no effect): ne; MMP 9 inhibition IC50 ([8]; ne = no effect): 1.37+6.27 μM; MMP 8 inhibition IC50 ([10]; ne = no effect): 1.37+6.27 μM
O=C(NO)c1cc2ccc3c(Br)c(CCN4CCNCC4)[se]c3c2oc1=O [Compound I-3, 7-Bromo-N-hydroxy-2-oxo-8-(2-(piperazin-1-yl)ethyl)-2H-selenopheno[3,2-h]chromene-3-carboxamide hydrochloride] |  | 97 ± 4 | 0.96 | 100 ± 1 | 1.13 ± 0.08 | 100 ± 1 | 6.66 ± 0.85 | 94 ± 2 | > 20 | 35 ± 5 | 3.88 ± 0.99 | 99 ± 4 | 20 ± 3 | 1.06 ± 0.07 | 99 ± 1 | ne | 0 | 1.61 ± 0.14 | 100 ± 1 | 4.95 ± 1.05 | MMP 7 inhibition IC50 ([7]; ne = no effect): ne
O=C(NO)c1cc2ccc3c(Br)c(CN4CCCNCC4)[se]c3c2oc1=O [Compound I-4, 8-((1,4-Diazepan-1-yl)methyl)-7-bromo-N-hydroxy-2-oxo-2H-selenopheno[3,2-h]chromene-3-carboxamide hydrochloride] |  | 95 ± 8 | 1.71 ± 0.18 | 99 ± 8 | 1.86 ± 0.21 | 99 ± 6 | 5.21 ± 0.62 | 99 ± 8 | > 20 | 34 ± 8 | 4.04 ± 0.97 | 99 ± 7 | 16 ± 3 | 1.92 ± 0.31 | 99 ± 6 | ne | 7 ± 3 | 1.86 ± 0.22 | 100 ± 9 | 4.74 ± 0.95 | MMP 7 inhibition IC50 ([7]; ne = no effect): ne
COc1ccc(S(=O)(=O)N(CC(=O)NO)CC(C)C)cc1 [NNGH, N-isobutyl-N-(4-methoxyphenylsulfonyl)-glycylhydroxamic acid, reference compound] |  |  |  |  |  |  |  |  |  |  |  |  |  |  |  |  |  |  |  |  | MMP 13 inhibition ([1]; control inhibitor 1.3 μM): 100%; MMP 10 inhibition ([2]; control inhibitor 1.3 μM): 100%; MMP 2 inhibition ([3]; control inhibitor 1.3 μM): 100%; MMP 1 inhibition ([4]; control inhibitor 1.3 μM): 100%; MMP 3 inhibition ([5]; control inhibitor 1.3 μM): 100%; MMP 14 inhibition ([6]; control inhibitor 1.3 μM): 100%; MMP 7 inhibition ([7]; control inhibitor 1.3 μM): 7.2%; MMP 9 inhibition ([8]; control inhibitor 1.3 μM): 100%; MMP 12 inhibition ([9]; control inhibitor 1.3 μM): 100%; MMP 8 inhibition ([10]; control inhibitor 1.3 μM): 100%
